Laboratory results as given in patent US20150218652A1, “METHODS FOR DIAGNOSIS AND TREATMENT OF CANCER” (THE REGENTS OF THE UNVERSITY OF COLORADO, a body corporate, priority 2012, published 2015).
Where two headings read alike, the source gives them in different places.

What was measured:
[1] = system: Ba/F3 cells expressing NTRK1-MPRIP; experiment: MTS proliferation assay of Ba/F3 cells expressing NTRK1-MPRIP; assay type: cell-based; details: n=5
Source text: (§1) The half maximal inhibitory concentration (IC50) values are listed (nM).

[2] = system: CUTO-3 cells harboring the NTRK1-MPRIP gene fusion; experiment: Immunoblot analysis of CUTO-3 cells; assay type: cell-based
Source text: Colorado University Thoracic Oncology (CUTO) 3 cells were derived from a pleural effusion from the index patient harboring the NTRK1-MPRIP gene fusion.

[3] = system: KM12 cells harboring the TPM3-NTRK1 fusion; experiment: MTS proliferation assay of KM12 cells; assay type: cell-based
Method: KM12 cells harboring the TPM3-NTRK1 fusion were lysed following 5 h treatment with the indicated doses of inhibitors and subject to immunoblot analysis (n=3).
Proliferation of KM12 cells treated with the indicated drugs and doses were assayed for cell proliferation by MTS assay.

[4] = system: Ba/F3 cells expressing NTRK1 fusions; experiment: MTS proliferation assay of Ba/F3 cells expressing NTRK1 fusions; assay type: cell-based; details: n=5, similar to Ba/F3 cells expressing ALK or ROS1 fusion constructs
Source text: as §1

TRKA [5] = molecular target: T1, TRKA (Homo sapiens, UniProt P04629); experiment: Immunoblot of 293T cell lysates expressing TRKA-HA: TRKA and downstream signaling; assay type: cell-based; details: 293T cells, 1 μM, 5 hours, presence or absence of NGF
T1 construct: the inventors expressed full length TRKA in 293T cells; expressed in transfected cells; host or cells: 293T cells, transient transfection of pCDH-MCS1-EF1-puro carrying NTRK1-HA
T1 sequence (P04629 33-796): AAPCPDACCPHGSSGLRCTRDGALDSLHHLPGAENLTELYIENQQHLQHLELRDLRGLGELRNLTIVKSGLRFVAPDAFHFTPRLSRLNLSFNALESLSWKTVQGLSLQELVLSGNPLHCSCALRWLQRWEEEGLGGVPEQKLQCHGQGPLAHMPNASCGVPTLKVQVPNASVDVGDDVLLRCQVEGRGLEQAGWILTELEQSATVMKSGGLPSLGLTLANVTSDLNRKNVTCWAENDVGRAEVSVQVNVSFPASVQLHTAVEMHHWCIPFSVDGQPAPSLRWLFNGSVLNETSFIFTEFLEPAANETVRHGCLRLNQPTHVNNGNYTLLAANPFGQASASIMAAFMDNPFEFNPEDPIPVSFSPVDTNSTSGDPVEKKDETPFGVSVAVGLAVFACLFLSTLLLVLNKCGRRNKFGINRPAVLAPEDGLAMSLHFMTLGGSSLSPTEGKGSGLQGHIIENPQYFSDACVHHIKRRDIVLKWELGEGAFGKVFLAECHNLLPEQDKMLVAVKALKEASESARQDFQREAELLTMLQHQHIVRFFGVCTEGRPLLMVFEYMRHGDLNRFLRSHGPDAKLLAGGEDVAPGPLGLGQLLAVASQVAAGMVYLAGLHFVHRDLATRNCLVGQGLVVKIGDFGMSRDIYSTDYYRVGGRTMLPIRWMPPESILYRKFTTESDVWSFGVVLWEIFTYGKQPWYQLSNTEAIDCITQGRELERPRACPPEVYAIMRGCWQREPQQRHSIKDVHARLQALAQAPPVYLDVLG

ROS1 gene fusions = details: lung cancer patients harboring ROS1 gene fusions; cited from earlier work
TRKA [6] = molecular target: T1, TRKA; experiment: Immunoprecipitation of TRKA-HA from 293T cells and anti-phosphotyrosine immunoblot; assay type: cell-based; details: 293T cells, 1 μM, 5 hours, vs DMSO control

| Compound | inhibition of proliferation [1] | inhibition of pERK [2] | inhibition of pTRKA [2] | inhibition of proliferation of KM12 cells [3] | inhibition of cell proliferation of Ba/F3 expressing NTRK1 fusions [4] | phosphorylation of ERK (TRKA [5]) | phosphorylation of TRKA (phosphotyrosine 490, 674, 675) (TRKA [5]) | inhibition of proliferation of KM12 cells ([3]; MTS assay) | patient response (ROS1 gene fusions) | Phosphorylation of TRKA (anti-phosphotyrosine 4G10 after HA immunoprecipitation) (TRKA [6]) | phosphorylation of AKT (TRKA [5]) |
| --- | --- | --- | --- | --- | --- | --- | --- | --- | --- | --- | --- |
| O=C(Nc1cnn2ccc(N3CCC[C@@H]3c3cc(F)ccc3F)nc12)N1CC[C@H](O)C1 [ARRY-470] | inhibition of proliferation | inhibition | inhibition | inhibited | – | – | – | – | – | – | – |
| C[C@@H](Oc1cc(-c2cnn(C3CCNCC3)c2)cnc1N)c1c(Cl)ccc(F)c1Cl [crizotinib] | – | – | – | – | inhibition | decreased phosphorylation | decreased phosphorylation | inhibited | respond | – | – |
| C[C@]12O[C@H](C[C@]1(O)CO)n1c3ccccc3c3c4c(c5c6ccccc6n2c5c31)CNC4=O [CEP-701] | inhibition of proliferation | – | – | – | – | inhibited phosphorylation | inhibited phosphorylation | inhibited | – | significantly reduced | inhibited phosphorylation |
